Results from patent publication US4351948A, “Imidazole hydrazone derivatives” (priority 1980, dated 1982).
Structures can show the parent of a compound that is named as a salt. Where two headings read alike, the source gives them in different places.

How the values were obtained:
in vivo = conditions: male mice, 7 day; for LD12.5: p.o.
[1] = system: platelet thromboxane generation; assay: Inhibition of platelet thromboxane generation (TxB2, collagen-stimulated human platelet rich plasma); assay type: cell-based; conditions: 10 min, read-out: Activity IC50 (50% inhibition of TxB2 generation)
Method: The compounds used according to the invention as anti-thrombotics were tested by the following method for their ability to inhibit platelet thromboxane generation.
Human venous blood was collected from healthy male donors, who had denied any medication in the previous 14 days. Nine volumes of blood were mixed with one volume of 3.24% trisodium citrate. The citrated blood was centrifuged at 160 g for 10 mins. at 22° C. to obtain platelet rich plasma (PRP). The platelets were then counted on a Coulter counter, and the platelet count was adjusted to 200,000 per μl with plasma.
The PRP was then dispensed as aliquots into micro-Eppendorf tubes, maintained at 37° C. in a dry bath. The compounds dissolved either in saline, ethanol, or DMSO were added in duplicate to the PRP aliquots to produce final concentrations of 0.3, 3 and 30 μg/ml. When ethanol and DMSO were used as the vehicle, triplicate controls containing the same percentage of vehicle as the test compounds were made. The final concentration or organic solvent was never more than 0.1%, which in previous experiments had no effect on TxB2 generation.
Following a 10 min. incubation with test compounds or vehicle, collagen was added to produce a final concentration of 8 μg/ml. The tubes were then whirly-mixed for 15 seconds and replaced in the dry bath for a further 10 minutes, controls received saline instead of collagen. The reaction was then stopped by rapid centrifugation, 15,000 g for 3 mins. The plasma was removed and frozen at -29° C. until assayed.
Briefly, 100 μl aliquots, in tricine buffered saline+0.8% gelatin (pH 8.0) of the following were incubated together for 1 hour at 37° C.: thromboxane Tx B2 (plasma extract, spiked plasma extract or standards 20 to 20,000 pg/ml), ^3 H--TxB2 (approximately 15,000 dpm) and anti-TxB2 antiserum (0.5 μg/100 μl). The free and protein bound ^3 H--TxB2 were separated by ammonium sulphate precipitation followed by centrifugation. 300 μl of the supernatant was added to an aqueous scintillation fluid, and the radioactivity present was counted in a liquid scintillation counter. The binding of ^3 H--TxB2 in the absence of added TxB2 was approximately 55%. The least amount of TxB2 to be detected accurately in the plasma was 0.08 ng/ml. Cross reactivity with other prostaglandins is less than 0.005% except PGD2 which is 1%.
Thus plasma samples were assayed to give a rough approximation of TxB2 content. The plasma was then appropriately diluted and assayed in duplicate to give accurate values.
The amount of TxB2 generated by the collagen was calculated by subtracting mean values obtained for the saline stimulated platelets from the mean values obtained from the collagen stimulated platelets. Then the amount of TxB2 generated in the presence of each concentration of compound was expressed as a % control and dose response curves were then constructed to determine the concentration of compound which produced a 50% inhibition.

C. sporogenes ATCC 19404 = assay: Antianaerobic activity, MIC by standard broth dilution method (Table II); assay type: cell-based; conditions: Clostridium sporogenes, ATCC19404, 24 h, read-out: Minimal Inhibitory Concentration (MIC)
Method: (§1) The activity of the compounds identified in the Table II below was tested for antianaerobic activity against one strain of Bacteroides fragilis, one strain of Bacteroides uniformis, one strain of Clostridium sporogenes and one strain of Trichomonas vaginalis as the test organism. The methods used involved determining the minimum inhibitory concentration by the standard broth dilution method. The values for metronidazole (2-methyl-5-nitro-1H-imidazole-1-ethanol) are given above for reference purposes. For convenience the compounds are referred to by an internal reference number (an HC number) and this is correlated with the number of the Example wherein its production is described.

B. fragilis ATCC 23745 = assay: as above; assay type: cell-based; conditions: Bacteroides fragilis, ATCC23745, 24 h, read-out: Minimal Inhibitory Concentration (MIC)
Method: as §1, with “The values for metronidazole (2-methyl-5-nitro-1H-imidazole-1-ethanol) are given above for reference purposes.” left out

B. uniformis ATCC 8492 = assay: as above; assay type: cell-based; conditions: Bacteroides uniformis, ATCC8492, 24 h, read-out: Minimal Inhibitory Concentration (MIC)
Method: as §1, with “The values for metronidazole (2-methyl-5-nitro-1H-imidazole-1-ethanol) are given above for reference purposes.” left out

T. vaginalis ATCC 30001 = assay: as above; assay type: cell-based; conditions: Trichomonas vaginalis, ATCC30001, 24 h, read-out: Minimal Inhibitory Concentration (MIC)
Method: as §1, with “The values for metronidazole (2-methyl-5-nitro-1H-imidazole-1-ethanol) are given above for reference purposes.” left out

[2] = collagen 8 μg/ml, human PRP, 10 min. incubation, 37° C.

SMILES: Nc1nc(=O)[nH]cc1F [5-Fluorocytosine]
- LD50 at 168 h (in vivo; mouse, in vivo, iv, read-out: LD50): 500 mg/kg
- LD12.5 (in vivo): 500 mg/kg

SMILES: C[C@@H]1[C@H](O)[C@@H](C)/C=C/C=C/C=C/C=C/C=C/C=C/C=C/[C@H](O[C@@H]2O[C@H](C)[C@@H](O)[C@H](N)[C@@H]2O)C[C@@H]2O[C@](O)(C[C@@H](O)C[C@@H](O)[C@H](O)CC[C@@H](O)C[C@@H](O)CC(=O)O[C@H]1C)C[C@H](O)[C@H]2C(=O)O [Amphotericin B]
- LD12.5 (in vivo): 280 mg/kg

SMILES: Clc1ccc(C(Cn2ccnc2)=NNc2ccccc2)cc1 [HC 290, 1-(4-Chlorophenyl)-2-(1H-imidazol-1-yl)ethanone, phenylhydrazone, hydrochloride]
- IC50 [1, 2]: 4.9 µM

SMILES: O=[N+]([O-])c1ccc(NN=C(Cn2ccnc2)c2ccccc2Cl)c([N+](=O)[O-])c1 [HC 336, 1-(2-chlorophenyl)-2-(1H-imidazol-1-yl) ethanone, 2,4-dinitrophenylhydrazone, hydrochloride]
- IC50 ([1]; Homo sapiens): 0.9 µM

SMILES: Clc1ccc(C(Cn2ccnc2)=NNc2cc(Cl)cc(Cl)c2)cc1 [HC 346, 1-(4-chlorophenyl)-2-(1H-imidazol-1-yl) ethanone, 3,5-dichlorophenylhydrazone]
- IC50 [1, 2]: 2.7 µM

SMILES: Clc1ccccc1C(Cn1ccnc1)=NNc1c(Cl)cccc1Cl [HC 365, 1-(2-chlorophenyl)-2-(1H-imidazol-1-yl)ethanone, 2,6-dichlorophenylhydrazone, hydrochloride]
- IC50 [1, 2]: 3.6 µM

SMILES: Clc1cccc(Cl)c1NN=C(Cn1ccnc1)c1ccccc1 [HC 368, 1-phenyl-2-(1H-imidazol-1-yl)ethanone, 2,6-dichlorophenylhydrazone, hydrochloride]
- IC50 [1, 2]: 0.8 µM

SMILES: Clc1ccc(C(Cn2ccnc2)=NNc2c(Cl)cccc2Cl)c(Cl)c1 [HC 377, 1-(2,4-dichlorophenyl)-2-(1H-imidazol-1-yl)ethanone, 2,6-dichlorophenylhydrazone, hydrochloride]
- IC50 [1, 2]: 2.7 µM

SMILES: O=[N+]([O-])c1cccc(C(Cn2ccnc2)=NNc2c(Cl)cccc2Cl)c1 [HC 402, 1-(3-nitrophenyl)-2-(1H-imidazol-1-yl)ethanone, 2,6-dichlorophenylhydrazone, hydrochloride]
- IC50 ([1]; Homo sapiens): 0.7 µM

SMILES: N#Cc1ccc(C(Cn2ccnc2)=NNc2c(Cl)cccc2Cl)cc1 [HC 416, 1-(4-cyanophenyl)-2-(1H-imidazol-1-yl)ethanone, 2,6-dichlorophenylhydrazone, hydrochloride]
- IC50 [1, 2]: 13.8 µM

SMILES: FC(F)(F)c1ccccc1C(Cn1ccnc1)=NNc1c(Cl)cccc1Cl [HC 418, 1-(2-trifluoromethylphenyl)-2-(1H-imidazol-1-yl)ethanone, 2,6-dichlorophenylhydrazone, hydrochloride]
- IC50 [1, 2]: 20.9 µM

SMILES: Fc1ccccc1C(Cn1ccnc1)=NNc1ccc(Cl)cc1Cl [HC 426, 1-(2-fluorophenyl)-2-(1H-imidazol-1-yl)ethanone, 2,4-dichlorophenylhydrazone, hydrochloride]
- IC50 [1, 2]: 5.5 µM

SMILES: Clc1ccc(/C(Cn2ccnc2)=N\Nc2ccccc2Cl)cc1 [HC 500, (E)-1-(4-chlorophenyl)-2-(1H-imidazol-1-yl)ethanone, 2-chlorophenylhydrazone, hydrochloride]
- IC50 [1, 2]: > 80 µM

SMILES: Cl.FC(F)(F)c1ccc(C(Cn2ccnc2)=NNc2c(Cl)cc(Cl)cc2Cl)cc1 [HC-482, 1-(4-trifluoromethylphenyl)-2-(1H-imidazol-1-yl)ethanone, 2,4,6-trichlorophenylhydrazone, hydrochloride]
- MIC (C. sporogenes ATCC 19404; Test 1): 5 mg/L
- MIC (C. sporogenes ATCC 19404; Test 2): 5 mg/L
- MIC (C. sporogenes ATCC 19404; Test 3): 5 mg/L
- MIC (B. fragilis ATCC 23745; Test 1): 5 mg/L
- MIC (B. fragilis ATCC 23745; Test 2): 5 mg/L
- MIC (B. fragilis ATCC 23745; Test 3): 5 mg/L
- MIC (B. uniformis ATCC 8492; Test 1): 2.5 mg/L
- MIC (B. uniformis ATCC 8492; Test 2): 2.5 mg/L
- MIC (B. uniformis ATCC 8492; Test 3): 2.5 mg/L
- MIC (T. vaginalis ATCC 30001; Test 1): 25 mg/L
- MIC (T. vaginalis ATCC 30001; Test 2): 25 mg/L
- MIC (T. vaginalis ATCC 30001; Test 3): 25 mg/L

SMILES: Cl.Clc1ccc(C(Cn2ccnc2)=NNc2ccccc2Br)cc1 [HC-486, 1-(4-chlorophenyl)-2-(1H-imidazol-1-yl)ethanone, 2-bromophenylhydrazone, hydrochloride]
- MIC (C. sporogenes ATCC 19404; Test 1): 2.5 mg/L
- MIC (C. sporogenes ATCC 19404; Test 2): 5 mg/L
- MIC (C. sporogenes ATCC 19404; Test 3): 5 mg/L
- MIC (B. fragilis ATCC 23745; Test 1): 5 mg/L
- MIC (B. fragilis ATCC 23745; Test 2): 5 mg/L
- MIC (B. fragilis ATCC 23745; Test 3): 5 mg/L
- MIC (B. uniformis ATCC 8492; Test 1): 2.5 mg/L
- MIC (B. uniformis ATCC 8492; Test 2): 2.5 mg/L
- MIC (B. uniformis ATCC 8492; Test 3): 5 mg/L
- MIC (T. vaginalis ATCC 30001; Test 1): 50 mg/L
- MIC (T. vaginalis ATCC 30001; Test 2): 50 mg/L
- MIC (T. vaginalis ATCC 30001; Test 3): 75 mg/L

SMILES: Cl.Clc1cc(Cl)c(NN=C(Cn2ccnc2)c2ccccc2Cl)c(Cl)c1 [HC-523, 1-(2-chlorophenyl)-2-(1H-imidazol-1-yl)ethanone, 2,4,6-trichlorophenylhydrazone, hydrochloride]
- MIC (C. sporogenes ATCC 19404; Test 1): 2.5 mg/L
- MIC (C. sporogenes ATCC 19404; Test 2): 2.5 mg/L
- MIC (C. sporogenes ATCC 19404; Test 3): 5 mg/L
- MIC (B. fragilis ATCC 23745; Test 1): 7.5 mg/L
- MIC (B. fragilis ATCC 23745; Test 2): 5 mg/L
- MIC (B. fragilis ATCC 23745; Test 3): 7.5 mg/L
- MIC (B. uniformis ATCC 8492; Test 1): 5 mg/L
- MIC (B. uniformis ATCC 8492; Test 2): 2.5 mg/L
- MIC (B. uniformis ATCC 8492; Test 3): 5 mg/L
- MIC (T. vaginalis ATCC 30001; Test 1): 50 mg/L
- MIC (T. vaginalis ATCC 30001; Test 2): 50 mg/L
- MIC (T. vaginalis ATCC 30001; Test 3): 50 mg/L

SMILES: Clc1ccc(NN=C(Cn2ccnc2)c2cc(Cl)ccc2Cl)c(Cl)c1 [HC-525, 1-(2,5-dichlorophenyl)-2-(1H-imidazol-1-yl) ethanone, 2,4-dichlorophenylhydrazone, hydrochloride]
- MIC (C. sporogenes ATCC 19404; Test 1): 2.5 mg/L
- MIC (C. sporogenes ATCC 19404; Test 2): 2.5 mg/L
- MIC (C. sporogenes ATCC 19404; Test 3): 2.5 mg/L
- MIC (B. fragilis ATCC 23745; Test 1): 2.5 mg/L
- MIC (B. fragilis ATCC 23745; Test 2): 2.5 mg/L
- MIC (B. fragilis ATCC 23745; Test 3): 2.5 mg/L
- MIC (B. uniformis ATCC 8492; Test 1): 2.5 mg/L
- MIC (B. uniformis ATCC 8492; Test 2): 2.5 mg/L
- MIC (B. uniformis ATCC 8492; Test 3): 2.5 mg/L
- MIC (T. vaginalis ATCC 30001; Test 1): 50 mg/L
- MIC (T. vaginalis ATCC 30001; Test 2): 50 mg/L
- MIC (T. vaginalis ATCC 30001; Test 3): 50 mg/L

SMILES: CC(C(=NNc1c(Cl)cc(Cl)cc1Cl)c1ccc(Cl)cc1)n1ccnc1 (centres unmarked) [HC-561, 1-(4-chlorophenyl)-2-(1H-imidazol-1-yl)propanone, 2,4,6-trichlorophenylhydrazone, hydrochloride]
- MIC (C. sporogenes ATCC 19404; Test 1): 1 mg/L
- MIC (C. sporogenes ATCC 19404; Test 2): 1 mg/L
- MIC (C. sporogenes ATCC 19404; Test 3): 1 mg/L
- MIC (B. fragilis ATCC 23745; Test 1): 1 mg/L
- MIC (B. fragilis ATCC 23745; Test 2): 2.5 mg/L
- MIC (B. fragilis ATCC 23745; Test 3): 5 mg/L
- MIC (B. uniformis ATCC 8492; Test 1): 5 mg/L
- MIC (B. uniformis ATCC 8492; Test 2): 7.5 mg/L
- MIC (B. uniformis ATCC 8492; Test 3): 7.5 mg/L
- MIC (T. vaginalis ATCC 30001; Test 1): > 100 mg/L
- MIC (T. vaginalis ATCC 30001; Test 2): > 100 mg/L
- MIC (T. vaginalis ATCC 30001; Test 3): > 100 mg/L
